Test results reported in patent US10961202B2, “Bis-benzimidazole compounds and methods of using the same” (THE SCRIPPS RESEARCH INSTITUTE, priority 2017, dated 2021).

What was measured:
[1] = tested on: r(CUG)12-MBNL1 complex; test: Inhibition of the r(CUG)12-MBNL1 complex measured by TR-FRET; type: biochemical; details: Table M; 80 nM RNA, 60 nM MBNL1-His6
[2] = tested on: MBNL1 exon 5 inclusion in DM1 myotubes; test: Myotube splicing rescue assay (MBNL1 exon 5 inclusion); type: cell-based, human; details: 48-hour incubation

| Compound | IC50 [1] [µM] | MBNL1 % splicing rescue at 10 μM [2] [%] | MBNL1 % splicing rescue at 1 μM ([2]; 1 μM) [%] |
| --- | --- | --- | --- |
| CN(C)CCCOc1ccc2nc(-c3ccc(-c4nc5ccc(OCCCC(=O)OC(C)(C)C)cc5[nH]4)cc3)[nH]c2c1 [Compound 252, tert-butyl 4-((2-(4-(5-(3-(dimethylamino)propoxy)-1H-benzo[d]imidazol-2-yl)phenyl)-1H-benzo[d]imidazol-5-yl)oxy)butanoate] | 18.9 | 13.0 |  |
| C#CCOc1cc(-c2nc3ccc(OCCCN(C)C)cc3[nH]2)ccc1-c1nc2ccc(OCCCN(C)C)cc2[nH]1 [Compound 255, 3,3′-((2,2′-(2-(prop-2-yn-1-yloxy)-1,4-phenylene)bis(1H-benzo[d]imidazole-6,2-diyl))bis(oxy))bis(N,N-dimethylpropan-1-amine)] | 3.7 | 89.2 |  |
| CN(C)CCCOc1ccc2nc(-c3ccc(-c4nc5ccc(OCCCN(C)C)cc5[nH]4)c(O)c3)[nH]c2c1 [Compound 256, 2,5-bis(6-(3-(dimethylamino)propoxy)-1H-benzo[d]imidazol-2-yl)phenol] | 10.7 | 90.6 |  |
| CN(C)CCCOc1ccc2nc(-c3ccc(-c4nc5ccc(OCCCN(C)C)cc5[nH]4)c(Cl)c3)[nH]c2c1 [Compound 257, 3,3′-((2,2′-(2-chloro-1,4-phenylene)bis(1H-benzo[d]imidazole-6,2-diyl))bis(oxy))bis(N,N-dimethylpropan-1-amine)] | 24.6 | 92.1 |  |
| COCCOc1cc(-c2nc3ccc(OCCCN(C)C)cc3[nH]2)ccc1-c1nc2ccc(OCCCN(C)C)cc2[nH]1 [Compound 258, 3,3′-((2,2′-(2-(2-methoxyethoxy)-1,4-phenylene)bis(1H-benzo[d]imidazole-6,2-diyl))bis(oxy))bis(N,N-dimethylpropan-1-amine)] | 31 | 10.0 |  |
| CN(C)CCCOc1ccc2nc(-c3ccc(-c4nc5ccc(OCCCN(C)C)cc5[nH]4)c(OCCO)c3)[nH]c2c1 [Compound 259, 2-(2,5-bis(6-(3-(dimethylamino)propoxy)-1H-benzo[d]imidazol-2-yl)phenoxy)ethanol] | 7.2 | −12.7 |  |
| CN(C)CCCOc1ccc2nc(-c3ccc(-c4nc5ccc(C(=O)NCCNC(=N)N)cc5[nH]4)cc3)[nH]c2c1 [Compound 264, 2-(4-(6-(3-(dimethylamino)propoxy)-1H-benzo[d]imidazol-2-yl)phenyl)-N-(2-guanidinoethyl)-1H-benzo[d]imidazole-6-carboxamide] | 6.03 | −23.5 |  |
| CN(C)CCCOc1ccc2nc(-c3ccc(-c4nc5ccc(OCCCN(C)C)cc5[nH]4)c(OCCN=[N+]=[N-])c3)[nH]c2c1 [Compound 265, 3,3′-((2,2′-(2-(2-azidoethoxy)-1,4-phenylene)bis(1H-benzo[d]imidazole-6,2-diyl))bis(oxy))bis(N,N-dimethylpropan-1-amine)] | 16.6 | 84.3 |  |
| CN(C)CCCOc1ccc2nc(-c3ccc(-c4nc5ccc(C(=O)OCCN(C)C)cc5[nH]4)cc3)[nH]c2c1 [Compound 266] | 10.7 | −13.1 |  |
| CN(C)CCCOc1ccc2nc(-c3ccc(-c4nc5ccc(OCCCN(C)C)cc5[nH]4)c(OCCCl)c3)[nH]c2c1 [Compound 267, 3,3′-(((2-(2-chloroethoxy)-1,4-phenylene)bis(1H-benzo[d]imidazole-2,6-diyl))bis(oxy))bis(N,N-dimethylpropan-1-amine)] | 10.9 | 1.8 |  |
| CN(C)CCCOc1ccc2nc(-c3ccc(-c4nc5ccc(OCCCN(C)C)cc5[nH]4)c(C#N)c3)[nH]c2c1 [Compound 268, 2,5-bis(6-(3-(dimethylamino)propoxy)-1H-benzo[d]imidazol-2-yl)benzonitrile] | 9.6 | 73.6 |  |
| COc1cc(-c2nc3ccc(C(=O)OCCN(C)C)cc3[nH]2)c(OC)cc1-c1nc2ccc(C(=O)OCCN(C)C)cc2[nH]1 [Compound 269, bis(2-(dimethylamino)ethyl) 2,2′-(2,5-dimethoxy-1,4-phenylene)bis(1H-benzo[d]imidazole-6-carboxylate)] | 3.11 | 55.6 |  |
| CN(C)CCOC(=O)c1ccc2nc(-c3ccc(-c4nc5ccc(C(=O)OCCN(C)C)cc5[nH]4)c(F)c3)[nH]c2c1 [Compound 270, bis(2-(dimethylamino)ethyl) 2,2′-(2-fluoro-1,4-phenylene)bis(1H-benzo[d]imidazole-6-carboxylate)] | 5.81 | −19.5 |  |
| CN(C)CCCOc1c(F)cc2nc(-c3ccc(-c4nc5cc(F)c(OCCCN(C)C)c(F)c5[nH]4)cc3)[nH]c2c1F [Compound 273] | 6.1 | −15.3 |  |
| CN(C)CCNS(=O)(=O)c1ccc2nc(-c3ccc(-c4nc5ccc(S(=O)(=O)NCCN(C)C)cc5[nH]4)cc3)[nH]c2c1 [Compound 275, 2,2′-(1,4-phenylene)bis(N-(2-(dimethylamino)ethyl)-1H-benzo[d]imidazole-6-sulfonamide)] | 24.3 | −6.5 |  |
| CN(C)CCCOc1ccc2nc(-c3ccc(-c4nc5ccc(OCCCN(C)C)cc5[nH]4)nc3)[nH]c2c1 [Compound 276, 3,3′-(2,2′-(pyridine-2,5-diyl)bis(3H-benzo[d]imidazole-5,2-diyl))bis(oxy)bis(N,N-dimethylpropan-1-amine)] | 9.7 | 63.1 |  |
| CN(C)CCCOc1ccc2nc(-c3cc(O)c(-c4nc5ccc(OCCCN(C)C)cc5[nH]4)cc3O)[nH]c2c1 [Compound 278] | 38.1 | 48.2 | 79.7 |
| COc1cc(-c2nc3ccc(OCCCN(C)C)cc3[nH]2)c(OC)cc1-c1nc2ccc(OCCCN(C)C)cc2[nH]1 [Compound 290] | 11.1 | 97.2 |  |
| COc1cc(-c2nc3ccc(OCCCN(C)C)cc3[nH]2)ccc1-c1nc2ccc(OCCCN(C)C)cc2[nH]1 [Compound 293] | 18.2 | 71.0 |  |
| N=C(N)CCCOc1ccc2nc(-c3ccc(-c4nc5ccc(OCCCC(=N)N)cc5[nH]4)cc3)[nH]c2c1 [Compound 297] | 9.7 | −4.4 |  |
| COc1cc(-c2nc3ccc(C(=O)NCCN(C)C)cc3[nH]2)c(OC)cc1-c1nc2cc(OCCCN(C)C)ccc2[nH]1 [Compound 298] | 23.5 | −41.8 |  |
| COc1cc(-c2nc3ccc(C(=O)NCCCN(C)C)cc3[nH]2)c(OC)cc1-c1nc2cc(OCCCN(C)C)ccc2[nH]1 [Compound 299] | 10.3 | −34.9 |  |
| CN(C)CCCOc1cc2[nH]c(-c3ccc(-c4nc5cc(F)c(OCCCN(C)C)cc5[nH]4)c(F)c3)nc2cc1F [Compound 301, (3-[[2-(4-[6-[3-(dimethylamino)propoxy]-5-fluoro-1H-1,3-benzodiazol-2-yl]-3-fluorophenyl)-5-fluoro-1H-1,3-benzodiazol-6-yl]oxy]propyl)dimethylamine] | 5.3 | 19.4 |  |
